# Experimental data taken from patent publication US7063829B2, “Wasp family protein fragments, and use thereof” (Centre National de la Recherche Scientifique, priority 1999, dated 2006).
# What was measured:
# actin polymerisation = test: Cellular actin polymerisation test with GST-WH2/A beads in cell extracts; type: biochemical, human
# Text: The GST-WH2/A protein was absorbed onto 500 nm latex beads (Polyscience Inc., 400 Valley Road, Warrington Pa., USA) following the manufacturers' instructions.
# Moreover, the components recruited onto the surface of the beads, are targets for tyrosine kinase signalling pathways. Thanks to this in vitro system, it is now possible to study the conditions necessary for actin polymerisation in cells, a process which up to now has not been accessible to direct experimental manipulation.
# The cellular actin polymerisation test of the invention has all these characteristics. Beads measuring 200–500 nm can be produced by absorbing purified GST-WH2/A recombinant protein on their surface. […] The beads are then added to extracts prepared from supernatants of lysed cells in culture. The volume of extract necessary for an experiment is of the order of a few microlitres, reducing the cost of the experiment. These extracts have the advantage that they can be produced in a large quantity and stored for a long period, at −80° C. Before the addition of these beads, a fluorescent actin derivative (commercial actin-rhodamine) is added to the extract to make the actin polymerisation visible by epifluorescence microscopy. The actin polymerisation is observed 15 min after the addition of the beads, resulting in an accumulation of fluorescent actin around the beads. […]
# actin cytoskeleton = conditions: after some years of use; cited from earlier work
# [1] = system: actin polymerisation on the surface of GST-WA particles; test: Inhibition of actin polymerisation induced by GST-WA protein on particles in HeLa extracts; type: biochemical, human
# Description: Inhibition of actin polymerisation induced by GST-WA protein: 10 μm polystyrene particles (Polysciences inc.) are covered to saturation with GST-WA protein according to the manufacturer's protocol. The particles are resuspended to 1% solid in PBS (Phosphate Buffer Saline) and stored on ice. To test the independence of the actin polymerisation mechanism induced by GST-WA we prepared three solutions. Each sample contained 15 μl of HeLa extracts (supplemented with ATP, creatine phosphate and actin marked with rhodamine), 0.5 μl of GST-WA particles and 1.5 μl of PBS (A), or 1.5 μl of GST-WA protein at 1 mg/ml (B) or 1.5 μl of GST-PRO protein (PRO corresponding to the fragment delimited by the amino acids situated at positions 235 to 584 of the ActA protein of Listeria monocytogenes) at 1 mg/ml (C). 6 μl of the final mixture of these three solutions were sealed between slide and coverglass. We observed fluorescence (rhodamine actin) around the particles for thirty minutes and measured the intensity of fluorescence on a population of forty beads using a microscope (Leica) and a linear digital camera (Micromax Princeton instrument). The average intensity M (arbitrary unit) was 95,000±13,000 for sample A (positive control). For sample B, M=0±1000, the actin polymerisation on the surface of the particles was inhibited by the addition of GST-WA in solution. […]
molecule,measurement,setting,value
C=C1[C@@H](C)[C@H]2[C@H](Cc3ccccc3)NC(=O)[C@]23[C@H](OC(C)=O)/C=C/[C@@](C)(O)C(=O)[C@@H](C)C/C=C/[C@H]3[C@@H]1O [cytochalasin D],sensitivity of the screening test to known medicaments inhibiting actin polymerisation,actin polymerisation,sensitive
CCCC(CCC)C(=O)O [valproic acid],teratogenic properties due to secondary effects on the actin cytoskeleton,actin cytoskeleton,teratogenic properties
latrunculin,sensitivity of the screening test to known medicaments inhibiting actin polymerisation,actin polymerisation,sensitive
"GST-WA: recombinant fusion of GST, WH2/A domain of human WASP (positions 404-502, SEQ ID NO: 4) and myc9E10 epitope (protein, left off: a dimerising Fc or GST) PSSGNGPAPPPLPPALVPAGGLAPGGGRGALLDQIRQGIQLNKTPGAPESSALQPPPQSSEGLVGALMHVMQKRSRAIHSSDEGEDQAGDEDEDDEWDDEQKLISEEDL",average intensity M of fluorescence (rhodamine actin) around the particles,"[1]; 1.5 μl protein at 1 mg/ml added to 15 μl HeLa extracts + 0.5 μl GST-WA particles (10 μm polystyrene), thirty minutes, forty beads, PBS control (sample A) 95,000±13,000",0±1000 arbitrary unit
same,actin polymerisation on the surface of the particles after addition of the protein in solution,"[1]; protein at 1 mg/ml in solution, HeLa extracts, GST-WA particles",inhibited
